Earlier results, collected in patent US11654140B2, “Treatment of ocular inflammatory diseases using laquinimod” (Active Biotech AB, priority 2012, dated 2023).

System: patients with a history of uveitis
Conditions: patients with a history of uveitis (Sergott, 2011); cited from earlier work

CCCCCCCCc1ccc(CCC(N)(CO)CO)cc1 [fingolimod]
risk of macular edema: known to pose a risk of macular edema
